tested on: Wnt activity (Sp5-Luc reporter, Wnt-responsive promoter) in SW480 colon carcinoma cells; test: Wnt activity screening assay: Sp5-Luc reporter gene assay in SW480 cells; assay type: cell-based; settings: Homo sapiens, overnight incubation, 10-point curve starting from 10 μM
How it was run: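 First, hygromycin-selected SW480 Sp5-Luc reporter cells are seeded in medium with 1% fetal bovine serum and exposed overnight to compound (up to 10 μM, 0.1% DMSO). Next, luciferase signal is read by luminescence. Finally, EC50 is fitted, or percent inhibition at 10 μM is reported above 10 μM.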

| Structure (SMILES) | EC50 [µM] |
| --- | --- |
| CS(=O)(=O)NCc1cc(F)cc(-c2cccc3[nH]c(-c4n[nH]c5ccc(-c6cncnc6)nc45)nc23)c1 [Compound 503, N-(3-Fluoro-5-(2-(5-(pyrimidin-5-yl)-1H-pyrazolo[4,3-b]pyridin-3-yl)-1H-benzo[d]imidazol-4-yl)benzyl)methanesulfonamide] | 2.89 |
| c1ccc(-c2ccc3[nH]nc(-c4nc5ccccc5[nH]4)c3n2)nc1 [Compound 280, 3-(1H-Benzo[d]imidazol-2-yl)-5-(pyridin-2-yl)-1H-pyrazolo[4,3-b]pyridine] | 0.611 |
| c1csc(-c2cccc3[nH]c(-c4n[nH]c5ccc(-c6ccncc6)nc45)nc23)c1 [Compound 354, 5-(Pyridin-4-yl)-3-(4-(thiophen-2-yl)-1H-benzo[d]imidazol-2-yl)-1H-pyrazolo[4,3-b]pyridine] | 3.77 |
| O=C(Nc1cncc(-c2ccc3[nH]nc(-c4nc5c(-c6cccc(F)c6)cccc5[nH]4)c3n2)c1)C1CC1 [Compound 20, N-(5-(3-(4-(3-Fluorophenyl)-1H-benzo[d]imidazol-2-yl)-1H-pyrazolo[4,3-b]pyridin-5-yl)pyridin-3-yl)cyclopropanecarboxamide] | 1.08 |
| CC(C)(C)CC(=O)Nc1cncc(-c2ccc3[nH]nc(-c4nc5ccccc5[nH]4)c3n2)c1 [Compound 268, N-(5-(3-(1H-Benzo[d]imidazol-2-yl)-1H-pyrazolo[4,3-b]pyridin-5-yl)pyridin-3-yl)-3,3-dimethylbutanamide] | 3.55 |
| Oc1cncc(-c2ccc3[nH]nc(-c4nc5c(-c6cccnc6)cccc5[nH]4)c3n2)c1 [Compound 565, 5-(3-(4-(Pyridin-3-yl)-1H-benzo[d]imidazol-2-yl)-1H-pyrazolo[4,3-b]pyridin-5-yl)pyridin-3-ol] | 1.45 |
| CS(=O)(=O)NCc1cc(F)cc(-c2cccc3[nH]c(-c4n[nH]c5ccc(-c6cncc(CNCc7ccccc7)c6)nc45)nc23)c1 [Compound 500, N-(3-(2-(5-(5-((Benzylamino)methyl)pyridin-3-yl)-1H-pyrazolo[4,3-b]pyridin-3-yl)-1H-benzo[d]imidazol-4-yl)-5-fluorobenzyl)methanesulfonamide] | 2.34 |
| CCCC(=O)Nc1cncc(-c2ccc3[nH]nc(-c4nc5c(-c6ccsc6)cccc5[nH]4)c3n2)c1 [Compound 297, N-(5-(3-(4-(Thiophen-3-yl)-1H-benzo[d]imidazol-2-yl)-1H-pyrazolo[4,3-b]pyridin-5-yl)pyridin-3-yl)butyramide] | 0.643 |
| CN(C)CCNc1cc(F)cc(-c2cccc3[nH]c(-c4n[nH]c5ccc(-c6ccccn6)nc45)nc23)c1 [Compound 476, N^1-(3-Fluoro-5-(2-(5-(pyridin-2-yl)-1H-pyrazolo[4,3-b]pyridin-3-yl)-1H-benzo[d]imidazol-4-yl)phenyl)-N^2,N^2-dimethylethane-1,2diamine] | 1.49 |
| c1ccc(CNCc2cncc(-c3ccc4[nH]nc(-c5nc6c(-c7ccsc7)cccc6[nH]5)c4n3)c2)cc1 [Compound 304, N-Benzyl-1-(5-(3-(4-(thiophen-3-yl)-1H-benzo[d]imidazol-2-yl)-1H-pyrazolo[4,3-b]pyridin-5-yl)pyridin-3-yl)methanamine] | 2.76 |

Continued, values first:

| EC50 [µM] | Structure (SMILES) |
| --- | --- |
| 3.05 | c1cc(N2CCCCC2)c2nc(-c3n[nH]c4ccc(-c5cncc(OCCN6CCCC6)c5)nc34)[nH]c2c1 [Compound 610, 3-(4-(Piperidin-1-yl)-1H-benzo[d]imidazol-2-yl)-5-(5-(2-(pyrrolidin-1-yl)ethoxy)pyridin-3-yl)-1H-pyrazolo[4,3-b]pyridine] |
| 3.14 | c1cncc(-c2cccc3[nH]c(-c4n[nH]c5ccc(-c6cncc(OC7CCCCC7)c6)nc45)nc23)c1 [Compound 559, 5-(5-(Cyclohexyloxy)pyridin-3-yl)-3-(4-(pyridin-3-yl)-1H-benzo[d]imidazol-2-yl)-1H-pyrazolo[4,3-b]pyridine] |
| 3.77 | COc1cncc(-c2ccc3[nH]nc(-c4nc5c(N6CCCCC6)cccc5[nH]4)c3n2)c1 [Compound 612, 5-(5-Methoxypyridin-3-yl)-3-(4-(piperidin-1-yl)-1H-benzo[d]imidazol-2-yl)-1H-pyrazolo[4,3-b]pyridine] |
| 3.91 | FC1(F)CCN(Cc2cncc(-c3ccc4[nH]nc(-c5nc6c(N7CCCCC7)cccc6[nH]5)c4n3)c2)C1 [Compound 194, 5-(5-((3,3-Difluoropyrrolidin-1-yl)methyl)pyridin-3-yl)-3-(4-(piperidin-1-yl)-1H-benzo[d]imidazol-2-yl)-1H-pyrazolo[4,3-b]pyridine] |
| 1.06 | CN1CCN(c2cccc3[nH]c(-c4n[nH]c5ccc(-c6cncc(OCc7ccccc7)c6)nc45)nc23)CC1 [Compound 646, 5-(5-(Benzyloxy)pyridin-3-yl)-3-(4-(4-methylpiperazin-1-yl)-1H-benzo[d]imidazol-2-yl)-1H-pyrazolo[4,3-b]pyridine] |
| 1.55 | Oc1cncc(-c2ccc3[nH]nc(-c4nc5c(N6CCCCC6)cccc5[nH]4)c3n2)c1 [Compound 613, 5-(3-(4-(Piperidin-1-yl)-1H-benzo[d]imidazol-2-yl)-1H-pyrazolo[4,3-b]pyridin-5-yl)pyridin-3-ol] |
| 2.82 | CN(C)CCNc1cc(F)cc(-c2cccc3[nH]c(-c4n[nH]c5ccc(-c6cncc(CNCC7CCCC7)c6)nc45)nc23)c1 [Compound 473, N^1-(3-(2-(5-(5-(((Cyclopentylmethyl)amino)methyl)pyridin-3-yl)-1H-pyrazolo[4,3-b]pyridin-3-yl)-1H-benzo[d]imidazol-4-yl)-5-fluorophenyl)-N^2,N^2-dimethylethane-1,2-diamine] |
| 1.98 | O=C(Nc1cncc(-c2ccc3[nH]nc(-c4nc5ccccc5[nH]4)c3n2)c1)C1CCCCC1 [Compound 275, N-(5-(3-(1H-Benzo[d]imidazol-2-yl)-1H-pyrazolo[4,3-b]pyridin-5-yl)pyridin-3-yl) cyclohexanecarboxamide] |
| 1.03 | CN1CCN(c2cccc3[nH]c(-c4n[nH]c5ccc(-c6cncc(OC7CCCCC7)c6)nc45)nc23)CC1 [Compound 639, 5-(5-(Cyclohexyloxy)pyridin-3-yl)-3-(4-(4-methylpiperazin-1-yl)-1H-benzo [d]imidazol-2-yl)-1H-pyrazolo[4,3-b]pyridine] |
| 3.73 | O=C(Nc1cncc(-c2ccc3[nH]nc(-c4nc5c(N6CCCCC6)cccc5[nH]4)c3n2)c1)C1CC1 [Compound 188, N-(5-(3-(4-(Piperidin-1-yl)-1H-benzo[d]imidazol-2-yl)-1H-pyrazolo[4,3-b]pyridin-5-yl)pyridin-3-yl)cyclopropanecarboxamide] |
| 3.38 | O=C(Nc1cncc(-c2ccc3[nH]nc(-c4nc5c(-c6cccs6)cccc5[nH]4)c3n2)c1)C1CC1 [Compound 356, N-(5-(3-(4-(Thiophen-2-yl)-1H-benzo[d]imidazol-2-yl)-1H-pyrazolo[4,3-b]pyridin-5-yl)pyridin-3-yl)cyclopropanecarboxamide] |
| 1.17 | Fc1cccc(-c2cccc3[nH]c(-c4n[nH]c5ccc(-c6cncc(OCCN7CCCC7)c6)nc45)nc23)c1 [Compound 514, 3-(4-(3-Fluorophenyl)-1H-benzo[d]imidazol-2-yl)-5-(5-(2-(pyrrolidin-1-yl)ethoxy)pyridin-3-yl)-1H-pyrazolo[4,3-b]pyridine] |
| 8.53 | CN1CCN(c2cccc3[nH]c(-c4n[nH]c5ccc(-c6cncc(NC(=O)C7CCCC7)c6)nc45)nc23)CC1 [Compound 246, N-(5-(3-(4-(4-Methylpiperazin-1-yl)-1H-benzo[d]imidazol-2-yl)-1H-pyrazolo [4,3-b]pyridin-5-yl)pyridin-3-yl)cyclopentanecarboxamide] |

— US10392383B2, “3-(1H-benzo[d]imidazol-2-yl)-1H-pyrazolo[4,3-b]pyridines and therapeutic uses thereof” (Samumed, LLC, priority 2015, dated 2019)
